In article PMC4938916, “Effect of mutations to amino acid A301 and F361 in thermostability and catalytic activity of the β-galactosidase from Bacillus subtilis VTCC-DVN-12-01” (BMC Biochemistry, 2016):

Legend:
Assay in all cases: o-nitrophenol release at […] nm, Lineweaver-Burk
Format in all cases: biochemical
Conditions in all cases: 100 mM buffer Z (1 mM MgSO4, 50 mM 2-mercaptoethanol), pH 7.0, 55 °C; apparent
[1] = target: T1, β-galactosidase LacA (LacA-WT) (Bacillus subtilis, UniProt O07012, A286V, form not given)
T1 construct: gene ganA; full lacA gene (2061 bp) in pET22b(+), C-terminal 6xHis tag kept, E. coli JM109(DE3), Ni ProBond purified, 70 kDa, GH42

[2] = target: T2, β-galactosidase LacA (LacA-WT) (Bacillus subtilis, UniProt O07012, F346Y, form not given)
T2 construct: gene ganA; full lacA gene (2061 bp) in pET22b(+), C-terminal 6xHis tag kept, E. coli JM109(DE3), Ni ProBond purified, 70 kDa, GH42

[3] = target: T3, β-galactosidase LacA (LacA-WT) (Bacillus subtilis, UniProt O07012)
T3 construct: gene ganA; full lacA gene (2061 bp) in pET22b(+), C-terminal 6xHis tag kept, E. coli JM109(DE3), Ni ProBond purified, 70 kDa, GH42
T3 sequence (O07012 whole entry): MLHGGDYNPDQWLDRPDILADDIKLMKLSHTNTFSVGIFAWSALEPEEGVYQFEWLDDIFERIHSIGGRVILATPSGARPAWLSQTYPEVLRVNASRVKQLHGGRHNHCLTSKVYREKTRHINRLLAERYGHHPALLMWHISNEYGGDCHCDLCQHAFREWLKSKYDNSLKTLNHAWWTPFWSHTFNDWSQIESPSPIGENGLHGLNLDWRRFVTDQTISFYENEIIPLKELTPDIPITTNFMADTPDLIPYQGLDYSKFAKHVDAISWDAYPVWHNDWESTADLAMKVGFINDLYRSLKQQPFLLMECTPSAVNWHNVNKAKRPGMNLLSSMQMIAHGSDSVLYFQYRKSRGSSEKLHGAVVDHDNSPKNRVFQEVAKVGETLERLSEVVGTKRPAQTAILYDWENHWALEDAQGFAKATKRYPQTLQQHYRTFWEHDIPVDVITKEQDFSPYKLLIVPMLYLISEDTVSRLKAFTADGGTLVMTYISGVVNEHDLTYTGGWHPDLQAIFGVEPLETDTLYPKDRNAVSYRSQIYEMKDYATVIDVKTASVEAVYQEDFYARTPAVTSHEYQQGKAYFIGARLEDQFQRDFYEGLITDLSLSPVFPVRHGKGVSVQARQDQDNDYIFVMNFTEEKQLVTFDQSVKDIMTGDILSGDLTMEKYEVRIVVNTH

T2 sequence (O07012 whole entry F346Y, form open): as the sequence (O07012 whole entry) above, with F346Y counted along it
T1 sequence (O07012 whole entry A286V, form open): as the sequence (O07012 whole entry) above, with A286V counted along it

Km [1]: 5.57 ± 0.56 mM | Km [2]: 8.02 ± 0.27 mM | Km [3]: 9.28 ± 0.72 mM
Compound: O=[N+]([O-])c1ccccc1O[C@@H]1O[C@H](CO)[C@H](O)[C@H](O)[C@H]1O [oNPG, Ortho-nitrophenyl-β-D-galactopyranoside]
